# Experiment: MIC of test compounds against various organisms
# Assay type: cell-based
# Details: versus all of these organisms (S. epidermidis CL7, S. aureus WCUH29, S. pneumoniae 1629, S. pyogenes CN10, H. influenzae ATCC49247, E. faecalis 2, E. faecium 8, M. catarrhalis Ravisio, E. coli 7623)
# Excerpt: The MIC (μg/ml) of test compounds against various organisms may be determined:
# S. epidermidis CL7, S. aureus WCUH29, S. pneumoniae 1629, S. pyogenes CN10, H. influenzae ATCC49247, E. faecalis 2, E. faecium 8, M. catarrhalis Ravisio, E. coli 7623.
row,SMILES,MIC [µg/mL]
1,"COc1ccc2nccc([C@@H](O)CN3CCC(NCc4ccc5c(n4)NC(=O)CS5)C(F)C3)c2c1 (single isomer, unassigned) [Example 6]",≤ 2
2,"COc1ccc2nccc([C@@H](O)CN3CCC(NCc4ccc5c(n4)NC(=O)CO5)C(F)C3)c2c1 (single isomer, unassigned) [Example 10]",≤ 2
3,"COc1ccc2nccc([C@@H](O)CN3CCC(NCc4ccc5c(n4)NC(=O)CO5)C(F)C3)c2n1 (single isomer, unassigned) [Example 20]",≤ 2
4,"COc1ccc2nccc([C@@H](O)CN3CCC(NCc4nc5c(cc4Cl)OCC(=O)N5)C(F)C3)c2n1 (single isomer, unassigned) [Example 24]",≤ 2

# Next, values leading:
row,MIC [µg/mL],SMILES
1,≤ 2,"COc1cc(F)c2nccc([C@@H](O)CN3CCC(NCc4ccc5c(n4)NC(=O)CO5)C(F)C3)c2c1 (single isomer, unassigned) [Example 26]"
2,≤ 2,"COc1cc(F)c2nccc([C@@H](O)CN3CCC(NCc4ccc5c(n4)NC(=O)CS5)C(F)C3)c2c1 (single isomer, unassigned) [Example 27]"

# Same assay, conditions: versus some of these organisms (panel of b704; which ones not stated)
row,MIC [µg/mL],SMILES
1,≤ 16,COc1ccc2nccc([C@@H](O)CN3CC[C@@H](NCc4ccc5c(n4)NC(=O)CS5)C[C@H]3C(F)(F)F)c2n1 [Example 37]

# Source: US7312212B2, “Aminopiperidine derivatives” (priority 2002, dated 2007)
